Experimental data from patent US20220144838A1, “Compounds as Inhibitors of Macrophage Migration Inhibitory Factor” (NANJING IMMUNOPHAGE BIOTECH CO., LTD., priority 2019, published 2022).

molecular target: T1, MIF (Homo sapiens, UniProt P14174); test: MIF tautomerase assay using pHPP as substrate; assay type: biochemical; settings: inhibition of the MIF enzyme in vitro; mean of multiple test results; read-out: Tautomerase Inhibition pIC50 (converted)
T1 sequence (P14174 2-115 limits assumed): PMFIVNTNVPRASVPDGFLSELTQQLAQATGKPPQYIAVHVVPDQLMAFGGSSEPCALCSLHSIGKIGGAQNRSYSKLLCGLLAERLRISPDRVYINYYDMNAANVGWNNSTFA
Experimental: Tautomerase Assay Using pHPP as Substrate
This assay measured MIF's tautomerase activity in a cell-free system and was based on the determination of initial rates of the MIF-catalyzed conversion of the ketonic into the enolic tautomer of pHPP. This was achieved by spectrophotometric quantification of the complex between borate and the product of the reaction (enolic pHPP). The substrate was prepared by conversion of the enolic pHPP into its ketonic form. To achieve this, 0.5 M pHPP in methanol was diluted 10-fold with 50 mM sodium acetate buffer at pH 6.0, and then the suspension was shaken for 24 h at room temperature in darkness, and finally stored at 4° C. for not more than 1 week, with 5 min sonication being recommended before use.
Assays were performed in small-volume clear-bottom black 96 or 384-well polystyrene plates (Greiner Bio-One). First, 2 μL of the enzyme solution containing 6 nM of MIF in DPBS, 0.025% w/v BSA, and 300 μM CHAPS was dispensed onto sample and negative control wells using Multidrop Combi with metallic tip cassettes (Thermo Fisher Scientific) previously treated with Sigmacote. Then, 2 μL of the same buffer without MIF was dispensed onto positive control wells. The reaction was started by addition of the following to all wells: 2 μL of substrate solution containing 3 mM ketonic pHPP in 200 mM boric acid, 25 mM sodium phosphate, 0.025% w/v BSA, and 300 μM CHAPS at pH 6.0. In order to remove bubbles, the plate was centrifuged in an Allegra 25R centrifuge (Beckman Coulter, Inc., Brea, Calif.) at 1000 rpm for 2 min at room temperature. Then, the plate was read in an EnVision. Final concentrations of enzyme and substrate were 3 nM and 1.5 mM, respectively. Initial rates were calculated for each well as the slope of the absorbance progress curve.
All exemplified compounds (Examples 1-230) were tested in the MIF tautomerase assay or a similar assay described above. The data mentioned below represents a mean pIC50 value of multiple test results. It is understood that the data illustrated below may have reasonable variation depending on the specific conditions and procedures used by the person conducting the testing.

Compound | IC50 [nM]
Oc1ccc(N2CCN(c3ncc4ncn(-c5ccncc5)c4n3)CC2)cc1 [Example 184, 4-(4-(9-(pyridin-4-yl)-9H-purin-2-yl)piperazin-1-yl)phenol] | 10 to 97.7
Nc1nc(N2CC(O)(c3cn[nH]c3)C2)nc2c1ncn2-c1ccncc1 [Example 199, 1-(6-amino-9-(pyridin-4-yl)-9H-purin-2-yl)-3-(1H-pyrazol-4-yl)azetidin-3-ol] | > 10000
OC[C@H]1CCCN1c1nc(N2CCN(c3ccc(O)cc3)CC2)nc2c1ncn2-c1cccnc1 [Example 93, (R)-4-(4-(6-(2-(hydroxymethyl)pyrrolidin-1-yl)-9-(pyridin-3-yl)-9H-purin-2-yl)piperazin-1-yl)phenol] | 100 to 977
CN(CC(=O)O)c1nc(N2CCN(c3ccc(O)cc3)CC2)nc2c1ncn2-c1ccncc1 [Example 166, 3N-(2-(4-(4-hydroxyphenyl)piperazin-1-yl)-9-(pyridin-4-yl)-9H-purin-6-yl)-N-methylglycine] | 10 to 97.7
Oc1ccc(C2(O)CCN(c3nc(N4C[C@H](O)[C@@H](O)C4)c4ncn(-c5ccncc5)c4n3)CC2)cc1 [Example 207, (3S,4S)-1-(2-(4-hydroxy-4-(4-hydroxyphenyl)piperidin-1-yl)-9-(pyridin-4-yl)-9H-purin-6-yl)pyrrolidine-3,4-diol] | 100 to 977
Oc1ccc(N2CCN(c3nc(N4CCNCC4)c4ncn(-c5ccncc5)c4n3)CC2)cc1 [Example 178, 4-(4-(6-(piperazin-1-yl)-9-(pyridin-4-yl)-9H-purin-2-yl)piperazin-1-yl)phenol] | 100 to 977
Cc1nc(N2CCN(c3ccc(O)cc3)CC2)nc2c1ncn2-c1cc(Cl)cnn1 [Example 63, 4-(4-(9-(5-chloropyridazin-3-yl)-6-methyl-9H-purin-2-yl)piperazin-1-yl)phenol] | > 10000
O=C(O)Cn1cnc2c(N3N=CC4C=CC=CC43)nc(N3CCN(c4ccccc4)CC3)nc21 (stereo not drawn) [Example 48, 2-(6-(3a,7a-dihydro-1H-indazol-1-yl)-2-(4-phenylpiperazin-1-yl)-9H-purin-9-yl)acetic acid] | 100 to 977
COC(=O)c1ccc(-n2cnc3c(N)nc(N4CCN(c5ccc(O)cc5)CC4)nc32)cc1 [Example 101, methyl 4-(6-amino-2-(4-(4-hydroxyphenyl)piperazin-1-yl)-9H-purin-9-yl)benzoate] | 100 to 977

Next, values leading:

IC50 [nM] | Compound
100 to 977 | OCCn1cnc2c(-n3ncc4ccccc43)nc(N3CCN(c4ccc(O)cc4)CC3)nc21 [Example 3, 4-(4-(9-(2-hydroxyethyl)-6-(1H-indazol-1-yl)-9H-purin-2-yl)piperazin-1-yl)phenol]
100 to 977 | OCCNc1nc(N2CCN(c3ccc(O)cc3)CC2)nc2c1ncn2-c1cccnc1 [Example 112, 4-(4-(6-((2-hydroxyethyl)amino)-9-(pyridin-3-yl)-9H-purin-2-yl)piperazin-1-yl)phenol]
100 to 977 | OCCn1cnc2c(-n3ncc4ccccc43)nc(N3CCC(O)(c4ccc(O)cc4)CC3)nc21 [Example 158, 1-(9-(2-hydroxyethyl)-6-(1H-indazol-1-yl)-9H-purin-2-yl)-4-(4-hydroxyphenyl)piperidin-4-ol]
1000 to 9770 | Nc1nc(N2CCN(c3ccc(O)cc3)CC2)nc2c1ncn2-c1cccc(-c2ccccc2)c1 [Example 78, 4-(4-(9-([1,1′-biphenyl]-3-yl)-6-amino-9H-purin-2-yl)piperazin-1-yl)phenol]
> 10000 | OCCn1cnc2c(-n3ncc4ccccc43)nc(N3CC=C(c4ccc(O)cc4)CC3)nc21 [Example 159, 4-(1-(9-(2-hydroxyethyl)-6-(1H-indazol-1-yl)-9H-purin-2-yl)-1,2,3,6-tetrahydropyridin-4-yl)phenol]
1000 to 9770 | CCC(CO)n1cnc2c(N3CCc4ccccc43)nc(N3CCN(c4ccc(O)cc4)CC3)nc21 (stereo not drawn) [Example 30, 4-(4-(9-(1-hydroxybutan-2-yl)-6-(indolin-1-yl)-9H-purin-2-yl)piperazin-1-yl)phenol]
